The structures appear in SMILES notation.

One assay has as its system MB453 cells. The assay can be described thus: alamarBlue MB453 cell assay (antiproliferative/cytotoxicity). It counts as cell-based. The conditions noted are these: Homo sapiens; MDA MB 453 breast cancer cell line. The source says:
(§1) The H460, MB453, U87, MCF7 and BT474 alamarBlue cell assays provide EC50 values indicative of the antiproliferative or cytotoxic effects of the compounds to respectively the H460 (human non small cell line cancer), MB-453 (breast cancer cell line), U87 (glioblastoma cell line), MCF7 (breast cancer cell line) and BT474 (breast cancer cell line). As known in the field, antiproliferative or cytotoxic effect against this cell lines would be expected to be indicative of activity in treating lung, breast and brain cancers. See R. Marone R et al. Biochim. Biophys. Acta. 2008 January; 1784(1):159-85. S. Yaguchi et al., J. Natl. Cancer Inst. 2006 Apr. 19; 98(8):545-56.
(§2) Method Type: Antiproliferative/Cytotoxicity
(§3) alamarBlue® is designed to provide a rapid and sensitive measure of cell proliferation and cytotoxicity in various human and animal cell lines. The assay is based on the reduction of alamarBlue in the reducing environment of living (metabolically active) cells. In the presence of added cytotoxic or antiproliferative compounds, the innate metabolic activity ceases.
(§4) AlamarBlue is soluble and stable in culture medium. Measurements are made fluorometrically by exciting at 530-560 nm and measuring emission at 590 nm. In reporting percent alamarBlue reduction by monitoring fluorescence, data are expressed as fluorescence emission intensity units as a function of time of incubation.
(§5) 3. Equipment • 96-well plates, flat bottom (Falcon, Cat. No.: 353072) • 96-well plates, U-shaped (Costar, Cat. No.: 3799) • CO2-Incubator • Microplate Reader, Spectramax Plus, Molecular Devices 4. Typical Procedure • Day 0: Seed 3000 BT-474 cells (IMDM/5% FCS, 1% NEAA, 1% Sodiumpyruvat) in 150 μl medium into a 96-well plate, flat bottom (include mediumblank). Incubate plates at 37° C. in a CO2 incubator overnight. • Day 1: Dilute compounds to a concentration 40 μM->1:3 in medium, 10 dilution steps, in 96-well plates. • Add 50 μl per well of each dilution (total volume per well 200 μl; final conc. of cpds: 10 μM->1:3). If required, test further dilutions. • All concentrations are tested in duplicates. • Controls: Cells w/o cpd. (+50 μl medium/DMSO). • Cells are incubated with compounds for 5-6 days. • Day 6 or 7: Add 25 μl of alamarBlue solution to each well and incubate for 8 hours at 37° C. Measure fluorescence by exciting at 530-560 nm and measuring emission at 590 nm. 5. Evaluation • Subtract average value for medium blank from sample readings • Calculate EC50 using GraphPad Prism (Fifty)
For orientation: Resazurin is reduced to fluorescent resorufin, in cell work by metabolically active cells.

A further assay concerns the target PI3Kalpha (Homo sapiens (Human), UniProt P42336). The assay can be described thus: Inhibition of PI3Kalpha-induced PIP-2 phosphorylation (filter-binding assay). The format is biochemical. The conditions noted are these: 33P-ATP, p85alpha/His-p110alpha, read-out: IC50 PI3Kα. The source says: Inhibition of PI3Kalpha-Induced PIP-2 Phosphorylation
This PI3Kalpha assay provides an IC50 value indicative of the activity of the compounds to inhibit PI3 kinase alpha activity. Inhibition of PI3 kinase would be expected to be indicative of activity in treating conditions of excessive or anomalous cell proliferation, such as cancers. See also J. A. Engelman, Nature Reviews Cancer, 2009, 9, 550-562; A. Carnero, Expert Opin. Investig. Drugs, 2009, 18, 1265-1277 and P. Liu et al., Nature Reviews Drug Discovery, 2009, 8, 627-64.
Method Type: Filter-Binding-Assay
Aliquoted in desired amounts and stored at −80° C. Final assay concentration 25 ng/well • Phosphotyrosin PDGFRbeta-peptide H-CGG-pY-[…]-pY-VPMLDM-NH2 was synthesized by Jerini Peptide Technologies (JPT) and used in a final conc. of 1.7 μM (stock 100 μM prepared in Assay buffer with DTT, aliquoted in desired amounts and stored at −80° C.) • Cold ATP (from Sigma; A-7699), 100 μM stock solution in H2O, use 1 μM final concentration in assay • [33P]-ATP, 370 MBq/ml from Amersham (#AH9968), use 0.5 μCi/well (10 mCi/ml) • Clear 96-well plates from Greiner (#655 162) • Filter plates: Perkin Elmer UniFilter GF/B #6005177 • Microscint 0 (from Perkin Elmer, #6013611) 2. Assay Procedure
The substrate-containing lipid vesicles are dissolved to a concentration of 0.637 mg lipid blend/ml assay buffer (with BSA, freshly added) in 50 ml Falcon->keep on ice, followed by ultrasonication (pulse of 15 sec followed by a pause of 10 sec, 4×). Compounds are serially diluted in assay buffer+6% DMSO and […] of each dilution is added per well of a 96-well plate (compounds are tested in duplicates) and mixed with 30 μl of the lipid vesicles containing PDGFR-Peptide ([…]) and PI3K alpha (25 ng/well final). The mixture is then incubated for 20 minutes at room temperature. Subsequently, 20 μl of assay buffer containing […] cold ATP and 0.5 μCi/20 μl 33P-ATP are added. The plates are then incubated at room temperature for 120 minutes (shaking with 300 rpm).
The reaction mix is transferred onto filter plates using “filtermate harvester” from Packard: filter plates are rinsed with PBS, then the reaction mix is filtered onto the filter plate, washed 5 times with PBS and are allowed to dry for 30-60 minutes at 50° C.
The plate bottom is sealed with Perkin Elmer white adhesive foil and 25 μl/well Microscint( ) are added, the top is covered with transparent adhesive foil and the plate is measured with Wallac Trilux 1450 Microbeta Counter.
As positive control serve wells containing vehicle controls (1% DMSO in assay buffer), showing non-inhibited kinase activity (high values). Wells containing assay buffer instead of enzyme can serve as control for background activity (low values).
Calculate IC50 values using the Smiley program (based on GrapPad Prism)

The test system of a further assay is U87 cells. Description: U87 cell assay (antiproliferative/cytotoxicity). The settings on record: U-87MG human glioblastoma cells. The format is cell-based.
Text: as §1, §2, §3, §4, §5

The next assay deals with BT474 cells. The assay can be described thus: alamarBlue BT474 cell assay (antiproliferative/cytotoxicity). It counts as cell-based. The settings on record: BT-474 human breast cancer cell line.
Text: as §1, §2, §3, §4, §5

The test system of a further assay is H460 cells. The assay can be described thus: alamarBlue H460 cell assay (antiproliferative/cytotoxicity). The conditions noted are these: NCI-H460; H460 human lung carcinoma cells. The format is cell-based.
Text: as §1, §2, §3, §4, §5

Sequence of PI3Kalpha (P42336 whole entry): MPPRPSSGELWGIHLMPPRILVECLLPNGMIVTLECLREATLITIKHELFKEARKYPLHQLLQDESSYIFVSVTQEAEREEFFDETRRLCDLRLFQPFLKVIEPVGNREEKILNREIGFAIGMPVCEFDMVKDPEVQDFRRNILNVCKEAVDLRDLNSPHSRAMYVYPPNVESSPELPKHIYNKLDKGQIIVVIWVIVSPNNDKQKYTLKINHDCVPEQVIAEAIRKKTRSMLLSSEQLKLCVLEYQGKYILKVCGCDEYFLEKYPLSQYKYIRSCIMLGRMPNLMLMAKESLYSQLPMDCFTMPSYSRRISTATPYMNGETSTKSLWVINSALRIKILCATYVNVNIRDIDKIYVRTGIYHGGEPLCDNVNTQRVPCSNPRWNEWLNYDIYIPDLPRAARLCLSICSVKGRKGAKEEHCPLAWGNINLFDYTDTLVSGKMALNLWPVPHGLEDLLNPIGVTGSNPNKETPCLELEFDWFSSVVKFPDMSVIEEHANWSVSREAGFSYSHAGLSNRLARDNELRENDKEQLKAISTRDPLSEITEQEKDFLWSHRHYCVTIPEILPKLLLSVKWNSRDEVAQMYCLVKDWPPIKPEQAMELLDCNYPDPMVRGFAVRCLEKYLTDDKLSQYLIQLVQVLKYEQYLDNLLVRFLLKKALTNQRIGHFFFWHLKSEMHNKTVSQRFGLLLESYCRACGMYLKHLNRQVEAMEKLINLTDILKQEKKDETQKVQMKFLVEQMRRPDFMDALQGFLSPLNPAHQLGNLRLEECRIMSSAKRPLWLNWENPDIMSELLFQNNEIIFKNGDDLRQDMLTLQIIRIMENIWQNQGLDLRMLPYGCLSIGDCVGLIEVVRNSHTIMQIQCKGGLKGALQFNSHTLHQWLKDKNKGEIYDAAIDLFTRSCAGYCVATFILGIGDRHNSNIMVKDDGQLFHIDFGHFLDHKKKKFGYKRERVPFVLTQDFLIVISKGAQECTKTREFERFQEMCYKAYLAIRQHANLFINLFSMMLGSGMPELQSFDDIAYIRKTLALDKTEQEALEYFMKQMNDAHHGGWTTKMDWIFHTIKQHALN

With `COc1ncc(C#Cc2c(C)ncnc2N2CCOCC2)cc1NS(=O)(=O)c1cnn(C)c1` [Example I-88, N-[2-methoxy-5-[2-(4-methyl-6-morpholin-4-ylpyrimidin-5-yl)ethynyl]pyridin-3-yl]-1-methylpyrazole-4-sulfonamide], the EC50 (in general, the concentration needed to bring the measured effect to its halfway point) with MB453 cells was determined as 0.008 µM; in the assay on U87 cells, 0.027 µM; in the assay with BT474 cells it was 0.062 µM; in the assay on H460 cells it was 0.021 µM. For the same molecule, the IC50 (in general, the concentration at which inhibition is half-maximal) at PI3Kalpha was determined as 0.00055 µM.
In the case of `Cc1ncc(C#Cc2c(C)ncnc2N(C)CC2CCOC2)cc1NS(=O)(=O)c1ccccc1` (centres unmarked) [Example I-72, N-(2-Methyl-5-{4-methyl-6-[methyl-(tetrahydro-furan-3-ylmethyl)-amino]-pyrimidin-5-ylethynyl}-pyridin-3-yl)-benzenesulfonamide], the half-inhibitory concentration (IC50) at PI3Kalpha came out at 0.008 µM. In addition, the concentration giving a half-maximal response (EC50) with BT474 cells was determined as 5.16 µM.
As for `CCc1ncnc(N2CCCCC2)c1C#Cc1cnc(C)c(NS(C)(=O)=O)c1` [Example I-44, N-[5-(4-Ethyl-6-piperidin-1-yl-pyrimidin-5-ylethynyl)-2-methyl-pyridin-3-yl]-methanesulfonamide], at PI3Kalpha, the 50% inhibitory concentration (IC50) was determined as 0.002 µM. In the assay on H460 cells, this molecule had an EC50 of 0.117 µM.
In the case of `CCc1ncnc(N2CCOCC2)c1C#Cc1cnc(OC)c(NS(=O)(=O)c2cccs2)c1` [Example I-79, Thiophene-2-sulfonic acid [5-(4-ethyl-6-morpholin-4-yl-pyrimidin-5-ylethynyl)-2-methoxy-pyridin-3-yl]-amide], the IC50 at PI3Kalpha came to 0.00075 µM. The same molecule displayed a half-maximal effective concentration (EC50) in the assay on BT474 cells of 0.02 µM.
For the molecule `CCc1ncnc(N2CCOCC2)c1C#Cc1cnc(OC)c(NS(C)(=O)=O)c1` [Example I-75, N-[5-(4-Ethyl-6-morpholin-4-yl-pyrimidin-5-ylethynyl)-2-methoxy-pyridin-3-yl]-methanesulfonamide], the IC50 on PI3Kalpha is 0.001 µM. The midpoint of the response in the assay with BT474 cells, the EC50, lay at 0.247 µM.
As to `CCc1ncnc(NC)c1C#Cc1cnc(C)c(NS(C)(=O)=O)c1` [Example I-33, N-[5-(4-Ethyl-6-methylamino-pyrimidin-5-ylethynyl)-2-methyl-pyridin-3-yl]-methanesulfonamide], the IC50 on PI3Kalpha is 0.049 µM.
In the case of `CCc1ncnc(N2CCC(C)(O)CC2)c1C#Cc1cnc(C)c(NS(C)(=O)=O)c1` [Example I-42, N-{5-[4-Ethyl-6-(4-hydroxy-4-methyl-piperidin-1-yl)-pyrimidin-5-ylethynyl]-2-methyl-pyridin-3-yl}-methanesulfonamide], the IC50 on PI3Kalpha turned out to be 0.00055 µM. In the assay on H460 cells, this molecule showed an EC50 of 0.295 µM.
Take `CCc1ncnc(N2CCOCC2)c1C#Cc1cnc(OC)c(NS(=O)(=O)c2ccco2)c1` [Example I-80, Furan-2-sulfonic acid [5-(4-ethyl-6-morpholin-4-yl-pyrimidin-5-ylethynyl)-2-methoxy-pyridin-3-yl]-amide]: the half-maximal inhibitory concentration (IC50) on PI3Kalpha was 0.00055 µM. This molecule also came in with a 50% effective concentration (EC50) with BT474 cells of 0.04 µM.
The corresponding values for `CCc1ncnc(N2CCOCC2)c1C#Cc1cnc(OC)c(NS(=O)(=O)C2CC2)c1` [Example I-77, Cyclopropanesulfonic acid [5-(4-ethyl-6-morpholin-4-yl-pyrimidin-5-ylethynyl)-2-methoxy-pyridin-3-yl]-amide] are 0.001 µM and 0.263 µM.
For `CCc1ncnc(N2CCOCC2)c1C#Cc1cnc(OC)c(NS(=O)(=O)CC)c1` [Example I-76, Ethanesulfonic acid [5-(4-ethyl-6-morpholin-4-yl-pyrimidin-5-ylethynyl)-2-methoxy-pyridin-3-yl]-amide] the same measures were 0.002 µM and 0.342 µM.
For `Cc1ncc(C#Cc2c(C)ncnc2N2CCOC[C@H]2C)cc1NS(=O)(=O)c1ccccc1` [Example I-69, N-{2-Methyl-5-[4-methyl-6-((R)-3-methyl-morpholin-4-yl)-pyrimidin-5-ylethynyl]-pyridin-3-yl}-benzenesuIfonamide] the same measures were 0.002 µM and 0.749 µM.
For the molecule `Cc1ncc(C#Cc2c(C)ncnc2N2CCOC[C@@H]2C)cc1NS(=O)(=O)c1ccccc1` [Example I-70, N-{2-Methyl-5-[4-methyl-6-((S)-3-methyl-morpholin-4-yl)-pyrimidin-5-ylethynyl]-pyridin-3-yl}-benzenesulfonamide], the concentration for half-maximal inhibition (IC50) on PI3Kalpha amounted to 0.0002 µM. The EC50 with BT474 cells stood at 0.615 µM.
On to `CCc1nc(N)nc(N2CCC(O)CC2)c1C#Cc1cnc(C)c(NS(C)(=O)=O)c1` [Example I-35, N-{5-[2-Amino-4-ethyl-6-(4-hydroxy-piperidin-1-yl)-pyrimidin-5-ylethynyl]-2-methyl-pyridin-3-yl}-methanesulfonamide], for which the IC50 on PI3Kalpha came out at 0.005 µM. In addition, the EC50 in the assay with H460 cells is 25 µM.
For `CCc1nc(N)nc(N2CCC(C)(O)CC2)c1C#Cc1cnc(C)c(NS(C)(=O)=O)c1` [Example I-43, N-{5-[2-Amino-4-ethyl-6-(4-hydroxy-4-methyl-piperidin-1-yl)-pyrimidin-5-ylethynyl]-2-methyl-pyridin-3-yl}-methanesulfonamide] the same measures were 0.003 µM and 3.67 µM.
As for `Cc1ncc(C#Cc2c(C)ncnc2N2CCCOCC2)cc1NS(=O)(=O)c1ccccc1` [Example I-73, N-[2-Methyl-5-(4-methyl-6-[1,4]oxazepan-4-yl-pyrimidin-5-ylethynyl)-pyridin-3-yl]-benzenesulfonamide], at PI3Kalpha, the IC50 turned out to be 0.002 µM. This molecule yielded a half-maximal effective concentration (EC50) in the assay with BT474 cells of 1.94 µM.
Consider `CCc1nc(N)nc(N2CCCCC2)c1C#Cc1cnc(C)c(NS(C)(=O)=O)c1` [Example I-36, N-[5-(2-Amino-4-ethyl-6-piperidin-1-yl-pyrimidin-5-ylethynyl)-2-methyl-pyridin-3-yl]-methanesulfonamide], for which the 50% inhibitory concentration (IC50) on PI3Kalpha is 0.005 µM.
As for `CCc1ncnc(N2CCOCC2)c1C#Cc1cnc(OC)c(NS(=O)(=O)CCOC)c1` [Example I-78, 2-Methoxy-ethanesulfonic acid [5-(4-ethyl-6-morpholin-4-yl-pyrimidin-5-ylethynyl)-2-methoxy-pyridin-3-yl]-amide], on PI3Kalpha, the concentration for half-maximal inhibition (IC50) turned out to be 0.002 µM. In the assay on BT474 cells, the EC50 amounted to 0.469 µM.

The record behind these values is US8598157B2, “5-alkynyl-pyridines” (Boehringer Ingelheim International GmbH, priority 2011, dated 2013).
